Source: US10842779B2, “Heterocyclic compounds and their use in preventing or treating bacterial infections” (priority 2015, dated 2020)
Read-outs that look alike come from different tables or passages of the source.

How the values were obtained:
[1] = target: T1, KPC-2 (Klebsiella pneumoniae, UniProt Q9F663); experiment: β-Lactamase inhibitory activity, nitrocefin hydrolysis; assay type: biochemical; settings: class (A); 30 min pre-incubation
T1 construct: made in house; host or cells: E. coli

[2] = target: T2, CTX-M-15 (Escherichia coli, UniProt Q9EXV5); experiment: as above; assay type: biochemical; settings: class (A); 30 min pre-incubation
T2 construct: made in house; host or cells: E. coli

[3] = target: T3, TEM-1 (Escherichia coli, UniProt P62593); experiment: as above; assay type: biochemical; settings: class (A); 30 min pre-incubation
T3 construct: made in house; host or cells: E. coli

[4] = target: T4, OXA-1 (Escherichia coli, UniProt P13661); experiment: as above; assay type: biochemical; settings: class (D); 30 min pre-incubation
T4 construct: made in house; host or cells: E. coli

[5] = target: CMY-37 (Citrobacter freundii); experiment: as above; assay type: biochemical
[6] = target: AmpC (PAE) (Pseudomonas aeruginosa, UniProt P24735); experiment: biochemical
Protocol: (§1) Method 1: β-Lactamase Inhibitory Activity, Determination of IC50 (Table 1)
(§2) Enzyme activity was monitored by spectrophotometric measurement of nitrocefin (NCF-TOKU-E, N005) hydrolysis at 485 nm, at room temperature and in assay buffer A: 100 mM Phosphate pH7, 2% glycerol and 0.1 mg/mL Bovine serum albumin (Sigma, B4287). Enzymes were cloned in E. coli expression vector, expressed and purified in house using classical procedures. To a transparent polystyrene plate (Corning, 3628) were added in each well 5 μL DMSO or inhibitor dilutions in DMSO and 80 μL enzyme in buffer A. Plates were immediately read at 485 nm in a microplate spectrophotometer (BioTek, PowerWave HT) to enable background subtraction. After 30 min of pre-incubation at room temperature, 15 μL of NCF (200 μM final) were finally added in each well. Final enzyme concentrations were 0.1 nM (TEM-1), 0.075 nM (SHV-1), 0.4 nM (CTX-M-15), 1 nM (KPC-2), 0.2 nM (P99 AmpC), 0.2 nM (CMY-37), 0.4 nM (AmpC P. aeruginosa), 0.2 nM (OXA-1), 1.2 nM (OXA-11), 0.4 nM (OXA-15) and 0.3 nM (OXA-48). After 20 min incubation at room temperature, plates were once again read at 485 nm. Enzyme activity was obtained by subtracting the final signal by the background, and was converted to enzyme inhibition using non inhibited wells. IC50 curves were fitted to a classical Langmuir equilibrium model with Hill slope using XLFIT (IDBS).

[7] = target: AmpC (P99) (Enterobacter cloacae, UniProt P05364); experiment: biochemical
Protocol: as §1, §2

[8] = tested on: S. marcescens; experiment: Synergy with ceftazidime: MIC of ceftazidime at fixed concentration of compound; assay type: cell-based; settings: Serratia marcescens; SMA UFR30; beta-lactamases OXA-405; read-out: MIC of CAZ + compound (4 μg/mL)
Protocol: (§3) Method 2: MIC of Compounds and Synergy with Ceftazidime Against Bacterial Isolates (Table 2 and 3)
(§4) Compounds of the present invention were assessed against genotyped bacterial strains alone or in combination with the β-lactam ceftazidime. In the assays, MICs of said compounds, or of ceftazidime at fixed concentrations of said compounds were determined by the broth microdilution method according to the Clinical Laboratory Standards Institute (CLSI—M7-A7). Briefly, compounds alone according to the invention were prepared in DMSO and spotted (2 μL each) on sterile polystyrene plates (Corning, 3788). Compounds and ceftazidime dilutions were prepared in DMSO and spotted (1 μL each) on sterile polystyrene plates (Corning, 3788). Log phase bacterial suspensions were adjusted to a final density of 5×10^5 cfu/mL in cation-adjusted Mueller-Hinton broth (Beckton-Dickinson) and added to each well (98 μL). Microplates were incubated for 16-20 h at 35° C. in ambient air. The MIC of the compounds was defined as the lowest concentration of said compounds that prevented bacterial growth as read by visual inspection. The MIC of ceftazidime at each compound concentration was defined as the lowest concentration of ceftazidime that prevented bacterial growth as read by visual inspection.

[9] = tested on: P. aeruginosa; experiment: as above; assay type: cell-based; settings: Pseudomonas aeruginosa, read-out: MIC of CAZ + compound (4 μg/mL)
Protocol: as §3, §4

[10] = tested on: K. oxytoca; experiment: as above; assay type: cell-based; settings: Klebsiella oxytoca, read-out: MIC of CAZ + compound (4 μg/mL)
Protocol: as §3, §4

[11] = tested on: K. pneumoniae; experiment: as above; assay type: cell-based; settings: Klebsiella pneumoniae
Protocol: as §3, §4

[12] = tested on: P. mirabilis; experiment: as above; assay type: cell-based; settings: Proteus mirabilis; PMI UFR82; beta-lactamases CMY-2; read-out: MIC of CAZ + compound (4 μg/mL)
Protocol: as §3, §4

[13] = tested on: E. cloacae; experiment: as above; assay type: cell-based; settings: Enterobacter cloacae
Protocol: as §3, §4

[14] = tested on: E. aerogenes; experiment: as above; assay type: cell-based; settings: Klebsiella aerogenes; EAE 200261; beta-lactamases TEM-x AmpC; read-out: MIC of CAZ + compound (4 μg/mL)
Protocol: as §3, §4

[15] = tested on: C. freundii; experiment: as above; assay type: cell-based; settings: Citrobacter freundii; CFR UFR10; beta-lactamases OXA-48; read-out: MIC of CAZ + compound (4 μg/mL)
Protocol: as §3, §4

[16] = tested on: C. murliniae; experiment: as above; assay type: cell-based; settings: CMU 210102; beta-lactamases VIM-4; read-out: MIC of CAZ + compound (4 μg/mL)
Protocol: as §3, §4

[17] = target: T5, OXA-48 (Klebsiella pneumoniae, UniProt Q6XEC0); experiment: β-Lactamase inhibitory activity, nitrocefin hydrolysis; assay type: biochemical; settings: class (D); 30 min pre-incubation
T5 construct: made in house; host or cells: E. coli

O=C(O)C(F)(F)F.O=C1N2C[C@H](c3scnc3[C@H]2c2ncc[nH]2)N1OS(=O)(=O)[O-].[Na+] (relative stereo) [Example 1, Sodium and 2,2,2-trifluoroacetate [trans-7-(1H-imidazol-3-ium-2-yl)-9-oxo-3-thia-5,8,10-triaza-tricyclo[6.2.1.0^2,6]undeca-2(6),4-dien-10-yl]sulfate]
IC50 [1]: 4.2 nM | IC50 [2]: 2.7 nM | IC50 [3]: 12 nM | IC50 [4]: 190 nM | IC50 [5]: 0.63 nM | IC50 [6]: 17 nM | IC50 [7]: 0.37 nM | MIC [8]: < 0.25 µg/mL | MIC ([9]; PAE CIP107051, beta-lactamases TEM-24): 8 µg/mL | MIC ([9]; PAE MUS, beta-lactamases OXA-20 OXA-18): 8 µg/mL | MIC [10]: < 0.25 µg/mL | MIC ([11]; BAA1898, read-out: MIC of CAZ + compound (4 μg/mL), KPN BAA-1898, beta-lactamases TEM-1, SHV-11, SHV-12 KPC-2): 0.5 µg/mL | MIC ([11]; KPN 700603, beta-lactamases SHV-18 OXA-2, read-out: MIC of CAZ + compound (4 μg/mL)): < 0.25 µg/mL | MIC ([11]; KPN LIB, beta-lactamases SHV-11 OXA-48, read-out: MIC of CAZ + compound (4 μg/mL)): < 0.25 µg/mL | MIC ([11]; KPN UFR42, beta-lactamases SHV-2, CTX-M-15 OXA-1 OXA-181 NDM-1, read-out: MIC of CAZ + compound (4 μg/mL)): < 0.25 µg/mL | MIC ([11]; KPN UFR43, beta-lactamases SHV-11, CTX-M-15 CMY-2 OXA-1 NDM-1, read-out: MIC of CAZ + compound (4 μg/mL)): ≤ 0.25 µg/mL | MIC ([11]; KPN UFR77, beta-lactamases CMY-2, read-out: MIC of CAZ + compound (4 μg/mL)): < 0.25 µg/mL | MIC ([11]; KPN UFR79, beta-lactamases DHA-1 OXA-1, read-out: MIC of CAZ + compound (4 μg/mL)): < 0.25 µg/mL | MIC ([11]; KPN UFR80, beta-lactamases SHV-11 DHA-1 OXA-1, read-out: MIC of CAZ + compound (4 μg/mL)): < 0.25 µg/mL | MIC ([11]; read-out: MIC of CAZ + compound (4 μg/mL), KPN 6299, beta-lactamases TEM-1, SHV-11 OXA-163): ≤ 0.125 µg/mL | MIC ([11]; read-out: MIC of CAZ + compound (4 μg/mL), KPN 260252, beta-lactamases TEM-1, SHV-11 KPC-3): > 128 µg/mL | MIC [12]: ≤ 0.25 µg/mL | MIC ([13]; ECL 2185D, beta-lactamases OXA-163, read-out: MIC of CAZ + compound (4 μg/mL)): 1 µg/mL | MIC ([13]; ECL 190310, beta-lactamases AmpC, read-out: MIC of CAZ + compound (4 μg/mL)): < 0.25 µg/mL | MIC ([13]; ECL 200138, beta-lactamases AmpC, read-out: MIC of CAZ + compound (4 μg/mL)): 8 µg/mL | MIC ([13]; ECL 260033, beta-lactamases AmpC, read-out: MIC of CAZ + compound (4 μg/mL)): 4 µg/mL | MIC ([13]; ECL 260323, beta-lactamases AmpC, read-out: MIC of CAZ + compound (4 μg/mL)): < 0.25 µg/mL | MIC ([13]; ECL HAN, beta-lactamases OXA-35, read-out: MIC of CAZ + compound (4 μg/mL)): 2 µg/mL | MIC ([13]; ECL NEM146383, beta-lactamases AmpC, read-out: MIC of CAZ + compound (4 μg/mL)): < 0.25 µg/mL | MIC ([13]; ECL P99, beta-lactamases AmpC, read-out: MIC of CAZ + compound (4 μg/mL)): < 0.25 µg/mL | MIC ([13]; ECL UFR12, beta-lactamases CTX-M-9 OXA-48, read-out: MIC of CAZ + compound (4 μg/mL)): < 0.25 µg/mL | MIC ([13]; ECL UFR38, beta-lactamases CTX-M-15 NDM-1, read-out: MIC of CAZ + compound (4 μg/mL)): < 0.25 µg/mL | MIC ([13]; ECL UFR51, beta-lactamases SHV-12 IMP-8, read-out: MIC of CAZ + compound (4 μg/mL)): < 0.25 µg/mL | MIC ([13]; read-out: MIC of CAZ + compound (4 μg/mL), ECL UFR84, beta-lactamases TEM-1 AmpC OXA-1): ≤ 0.25 µg/mL | MIC [14]: < 0.25 µg/mL | MIC [15]: < 0.25 µg/mL | MIC [16]: < 0.25 µg/mL | IC50 [17]: 8.4 nM
